According to patent publication US20070112043A1, “Acylated and non-acylated imidazo[2,1-b]-1,3,4,-thiadiazole-2-sulfonamides, and uses thereof” (priority 2003, published 2007):

Assay: physchem
Details: water
Procedure: (§1) Alternatively, the sodium salt can be prepared in situ by dissolving the free acid in phosphate buffered saline (PBS) that has been buffered to a pH of 7.4. The solubility and stability of these solutions can be improved by the use of an aqueous soluble co-solvent such as, but not limited to HPCD. This solubility can be further improved by the addition of surfactants such as PEG 400. In general, the free acid is suspended in 10 wt/vol % HPDC (10 g dissolved in 100 mL water) and treated with 0.5M PBS (pH 7.4) such that the volumes are in a ratio of 75:25.

Compound	solubility [µg/mL]
NS(=O)(=O)c1nn2cc(-c3ccc(-c4ccc(C(F)(F)F)cc4)cc3)nc2s1 [Compound 105]	< 500
NS(=O)(=O)c1nn2cc(C(F)(F)F)nc2s1 [Compound 91]	< 500
NS(=O)(=O)c1nn2cc(-c3ccc(Oc4ccc(F)c(F)c4)cc3)nc2s1 [Compound 112]	< 500
NS(=O)(=O)c1nn2cc(-c3ccc(-c4cccc(OC(F)(F)F)c4)cc3)nc2s1 [Compound 102]	< 500
NS(=O)(=O)c1nn2cc(-c3ccc(-c4ccccc4)s3)nc2s1 [Compound 131]	< 500
Cc1ccc(C23CC4CC(CC2C4)C3)cc1-c1cn2nc(S(N)(=O)=O)sc2n1 [Compound 83]	< 500
CC1(C)CCC(C)(C)c2cc(-c3cn4nc(S(N)(=O)=O)sc4n3)ccc21 [Compound 88]	< 500
COc1ccc(-c2ccc(-c3cn4nc(S(N)(=O)=O)sc4n3)cc2)cc1 [Compound 101]	< 500
NS(=O)(=O)c1nn2cc(-c3ccc4c(c3)OCO4)nc2s1 [Compound 65]	< 500
Br.NS(=O)(=O)c1nn2cc(-c3ccc([N+](=O)[O-])s3)nc2s1 [Compound 132]	< 500
COc1ccccc1-c1ccc(-c2cn3nc(S(N)(=O)=O)sc3n2)cc1 [Compound 100]	< 500
NS(=O)(=O)c1nn2cc(-c3cc4ccccc4oc3=O)nc2s1 [Compound 127]	< 500
NS(=O)(=O)c1nn2cc(-c3ccc(Oc4ccc(F)cc4)cc3)nc2s1 [Compound 111]	< 500
NS(=O)(=O)c1nn2cc(-c3ccc(OCCO)cc3)nc2s1 [Compound 68]	< 500
COCCOCCOc1ccc(-c2cn3nc(S(N)(=O)=O)sc3n2)cc1 [Compound 71]	< 500
CC(C)(C)c1ccc(-c2cn3nc(S(N)(=O)=O)sc3n2)cc1 [Compound 81]	< 500
NS(=O)(=O)c1nn2cc(-c3ccc(-c4ccsc4)cc3)nc2s1 [Compound 108]	< 500
Cc1c(-c2cn3nc(S(N)(=O)=O)sc3n2)sc2ccccc12 [Compound 133]	< 500
NS(=O)(=O)c1nn2cc(-c3cccc(Br)c3)nc2s1 [Compound 59]	< 500
CC(=O)OCCOc1ccc(-c2cn3nc(S(N)(=O)=O)sc3n2)cc1 [Compound 69]	< 500
CNS(=O)(=O)c1nn2cc(-c3ccccc3)nc2s1 [Compound 140]	< 500

Compound	solubility [µg/mL]
COc1ccc(-c2cn3nc(S(N)(=O)=O)sc3n2)cc1 [Compound 62]	< 500
NS(=O)(=O)c1nn2cc(-c3cc(-c4ccccc4)no3)nc2s1 [Compound 135]	< 500
NS(=O)(=O)c1nn2cc(-c3ccc(Oc4cccc(Br)c4)cc3)nc2s1 [Compound 115]	< 500
Cc1c(-c2cn3nc(S(N)(=O)=O)sc3n2)cnn1-c1ccccc1 [Compound 137]	< 500
NS(=O)(=O)c1nn2cc(-c3cccc([N+](=O)[O-])c3)nc2s1 [Compound 74]	< 500
NS(=O)(=O)c1nn2cc(-c3cccc4ccccc34)nc2s1 [Compound 93]	< 500
NS(=O)(=O)c1nn2cc(-c3ccc(-c4c(F)c(F)c(F)c(F)c4F)cc3)nc2s1 [Compound 99]	< 500
NS(=O)(=O)c1nn2cc(-c3ccccc3F)nc2s1 [Compound 52]	< 500
NS(=O)(=O)c1nn2cc(-c3cccs3)nc2s1 [Compound 130]	< 500
Cc1ccc(-c2cn3nc(S(N)(=O)=O)sc3n2)cc1 [Compound 79]	< 500
NS(=O)(=O)c1nn2cc(-c3cccc(OC(F)(F)F)c3)nc2s1 [Compound 66]	< 500
NS(=O)(=O)c1nn2cc(-c3cc4ccccc4o3)nc2s1 [Compound 129]	< 500
CC(C)(C)c1cc(-c2cn3nc(S(N)(=O)=O)sc3n2)c2c(c1)C(C)(C)CC2 [Compound 82]	< 500
N#Cc1ccc(-c2cn3nc(S(N)(=O)=O)sc3n2)cc1 [Compound 78]	< 500
CC(C)c1ccc(Oc2ccc(-c3cn4nc(S(N)(=O)=O)sc4n3)cc2)cc1 [Compound 118]	< 500
NS(=O)(=O)c1nn2cc(-c3ccc(Oc4ccccc4)cc3)nc2s1 [Compound 110]	< 500
N#Cc1cccc(-c2cn3nc(S(N)(=O)=O)sc3n2)c1 [Compound 77]	< 500
COc1ccc(OC)c(-c2cn3nc(S(N)(=O)=O)sc3n2)c1 [Compound 63]	< 500
Cc1nc(C)c(-c2cn3nc(S(N)(=O)=O)sc3n2)s1 [Compound 139]	< 500
NS(=O)(=O)c1nn2cc(-c3ccccn3)nc2s1 [Compound 123]	< 500
NS(=O)(=O)c1nn2cc(-c3ccc(Oc4ccccc4Br)cc3)nc2s1 [Compound 114]	< 500

Compound	solubility [µg/mL]
NS(=O)(=O)c1nn2cc(-c3cc(C(F)(F)F)cc(C(F)(F)F)c3)nc2s1 [Compound 86]	< 500
NS(=O)(=O)c1nn2cc(-c3ccc(-c4ccc5c(c4)OCO5)cc3)nc2s1 [Compound 103]	< 500
CC(C)(C)c1cc(-c2cn3nc(S(N)(=O)=O)sc3n2)cc(C(C)(C)C)c1 [Compound 87]	< 500
COc1ccc(Oc2ccc(-c3cn4nc(S(N)(=O)=O)sc4n3)cc2)cc1 [Compound 119]	< 500
NS(=O)(=O)c1nn2cc(-c3ccc(Cl)c(Cl)c3Cl)nc2s1 [Compound 58]	< 500
Cc1ccc(-c2cn3nc(S(N)(=O)=O)sc3n2)c(C)c1 [Compound 80]	< 500
NS(=O)(=O)c1nn2cc(-c3ccc(-c4cccs4)cc3)nc2s1 [Compound 107]	< 500
NS(=O)(=O)c1nn2cc(-c3ccc(N4CCCCC4)cc3)nc2s1 [Compound 96]	< 500
COc1cccc(-c2cn3nc(S(N)(=O)=O)sc3n2)c1 [Compound 61]	< 500
NS(=O)(=O)c1nn2cc(-c3ccc(-c4ccccc4)cc3)nc2s1 [Compound 98]	< 500
NS(=O)(=O)c1nn2cc(-c3ccc(-c4ccccc4C(F)(F)F)cc3)nc2s1 [Compound 104]	< 500
NS(=O)(=O)c1nn2cc(-c3ccc(OC(F)(F)F)cc3)nc2s1 [Compound 67]	< 500
NS(=O)(=O)c1nn2cc(-c3ccc(F)cc3)nc2s1 [Compound 54]	< 500
NS(=O)(=O)c1nn2cc(-c3cc(C(F)(F)F)ccc3Cl)nc2s1 [Compound 85]	< 500
NS(=O)(=O)c1nn2cc(-c3nccs3)nc2s1 [Compound 138]	< 500
NS(=O)(=O)c1nn2cc(-c3ccc(-c4cc(C(F)(F)F)cc(C(F)(F)F)c4)cc3)nc2s1 [Compound 106]	< 500
NS(=O)(=O)c1nn2cc(-c3ccc(OCCOCc4ccccc4)cc3)nc2s1 [Compound 72]	< 500
NS(=O)(=O)c1nn2cc(-c3ccc4c(c3)NC(=O)CO4)nc2s1 [Compound 128]	< 500
COc1ccc(-c2cn3nc(S(N)(=O)=O)sc3n2)c(OC)c1 [Compound 64]	< 500
NS(=O)(=O)c1nn2cc(-c3ccc(Cl)cc3)nc2s1 [Compound 56]	< 500
Cc1onc(-c2ccccc2)c1-c1cn2nc(S(N)(=O)=O)sc2n1 [Compound 136]	< 500

Compound	solubility [µg/mL]
Cc1ccc(-c2cn3nc(S(N)(=O)=O)sc3n2)cc1Cl [Compound 122]	< 500
NS(=O)(=O)c1nn2cc(-c3cnccn3)nc2s1 [Compound 126]	< 500
COc1ccc(-c2cccc(-c3cn4nc(S(N)(=O)=O)sc4n3)c2)cc1 [Compound 109]	< 500
CN(C)c1cccc(Oc2ccc(-c3cn4nc(S(N)(=O)=O)sc4n3)cc2)c1 [Compound 117]	< 500
NS(=O)(=O)c1nn2cc(-c3ccc(Cl)c(Cl)c3)nc2s1 [Compound 57]	< 500
NS(=O)(=O)c1nn2cc(-c3ccc(F)c(F)c3)nc2s1 [Compound 55]	< 500
NS(=O)(=O)c1nn2cc(-c3ccc(C(F)(F)F)cc3)nc2s1 [Compound 84]	< 500
NS(=O)(=O)c1nn2cc(-c3ccc(Br)cc3)nc2s1 [Compound 60]	< 500
NS(=O)(=O)c1nn2cc(-c3cccc(F)c3)nc2s1 [Compound 53]	< 500
NS(=O)(=O)c1nn2cc(C34CC5CC(CC(C5)C3)C4)nc2s1 [Compound 92]	< 500
NS(=O)(=O)c1nn2cc(-c3ccc(Oc4ccc(Cl)c(Cl)c4)cc3)nc2s1 [Compound 113]	< 500
NS(=O)(=O)c1nn2cc(-c3ccc(Oc4ccc([N+](=O)[O-])cc4)cc3)nc2s1 [Compound 120]	< 500
COC(=O)c1ccc(-c2cn3nc(S(N)(=O)=O)sc3n2)cc1 [Compound 76]	< 500
NS(=O)(=O)c1nn2cc(-c3ccc(OCCC(F)(F)F)cc3)nc2s1 [Compound 70]	< 500
NS(=O)(=O)c1nn2cc(-c3ccc(OCCCOCc4ccccc4)cc3)nc2s1 [Compound 73]	< 500
NS(=O)(=O)c1nn2cc(-c3ccc(Cl)c([N+](=O)[O-])c3)nc2s1 [Compound 75]	< 500
NS(=O)(=O)c1nn2cc(-c3ccc4ccccc4c3)nc2s1 [Compound 94]	< 500
CC(=O)N[C@H](C)c1ccc(-c2cn3nc(S(N)(=O)=O)sc3n2)cc1 [Compound 90]	< 500

Assay: Solubility in water and formulations
Details: TFA salts, not neutralized
Procedure: as §1

Compound	solubility in water or in 10% HPCD
CSCCC(N)C(=O)NS(=O)(=O)c1nn2cc(-c3ccccc3)nc2s1 (centres unmarked) [Compound 24]	not soluble
O=C(NS(=O)(=O)c1nn2cc(-c3ccccc3)nc2s1)C1CCCN1 (centres unmarked) [Compound 26]	not soluble
